Results as given in US6214340A, “Physiologically active substance sulphostin, process for producing the same, and use thereof” (Zaidan Hojin Biseibutsu Kagaku Kenkyu Kai, priority 1997, dated 2001).

Assay: Solubility (physicochemical properties)
Source text: The physicochemical properties of the thus obtained physiologically active substance sulphostin are shown below.
4) Solubility: soluble in water and insoluble in lower alcohol, acetone, ethyl acetate, hexane and petroleum ether.

## NC1CCCN(P(N)(=O)NS(=O)(=O)O)C1=O (centres unmarked) [sulphostin]
In lower alcohol, acetone, ethyl acetate, hexane and petroleum ether
  Solubility: insoluble
In water
  Solubility: soluble
